In the NIST ThermoML archive (doi:10.1007/s10765-013-1469-0):
± gives the expanded uncertainty stated by the source.

Experiment: xn = mol fraction of the nth substance listed
Details: 101 kPa, Liquid; for viscosity: Concentric cylinders viscometry; for mass density: Vibrating tube method

COCCOCCOCCOCCOC [2,5,8,11,14-pentaoxapentadecane] + CCCCO
Details | mass density [kg/m3] | viscosity [mPa·s]
288.15 K, x2 = 0 | 1015.63 ± 0.1 | 4.341 ± 0.04
288.15 K, x2 = 0.1013 | 1006.51 ± 0.098 | 4.077 ± 0.037
288.15 K, x2 = 0.2236 | 993.986 ± 0.096 | 3.779 ± 0.035
288.15 K, x2 = 0.3036 | 984.642 ± 0.098 | 3.567 ± 0.033
288.15 K, x2 = 0.4131 | 969.983 ± 0.1 | 3.317 ± 0.031
288.15 K, x2 = 0.5065 | 955.349 ± 0.1 | 3.129 ± 0.029
288.15 K, x2 = 0.5996 | 938.288 ± 0.11 | 2.945 ± 0.027
288.15 K, x2 = 0.7007 | 916.154 ± 0.11 | 2.795 ± 0.026
288.15 K, x2 = 0.7991 | 889.873 ± 0.12 | 2.74 ± 0.026
288.15 K, x2 = 0.8996 | 856.379 ± 0.13 | 2.875 ± 0.027
293.15 K, x2 = 0 | 1011 ± 0.1 | 3.834 ± 0.035
293.15 K, x2 = 0.1013 | 1001.91 ± 0.099 | 3.591 ± 0.033
293.15 K, x2 = 0.2236 | 989.415 ± 0.1 | 3.315 ± 0.031
293.15 K, x2 = 0.3036 | 980.1 ± 0.1 | 3.139 ± 0.029
293.15 K, x2 = 0.4131 | 965.493 ± 0.11 | 2.922 ± 0.027
293.15 K, x2 = 0.5065 | 950.916 ± 0.11 | 2.77 ± 0.026
293.15 K, x2 = 0.5996 | 933.921 ± 0.12 | 2.603 ± 0.024
293.15 K, x2 = 0.7007 | 911.881 ± 0.12 | 2.474 ± 0.023
293.15 K, x2 = 0.7991 | 885.715 ± 0.13 | 2.428 ± 0.023
293.15 K, x2 = 0.8996 | 852.384 ± 0.14 | 2.546 ± 0.024
298.15 K, x2 = 0 | 1006.36 ± 0.1 | 3.38 ± 0.031
298.15 K, x2 = 0.1013 | 997.307 ± 0.098 | 3.152 ± 0.029
298.15 K, x2 = 0.2236 | 984.881 ± 0.1 | 2.93 ± 0.027
298.15 K, x2 = 0.3036 | 975.56 ± 0.1 | 2.783 ± 0.026
298.15 K, x2 = 0.4131 | 960.897 ± 0.11 | 2.599 ± 0.024
298.15 K, x2 = 0.5065 | 946.305 ± 0.11 | 2.462 ± 0.023
298.15 K, x2 = 0.5996 | 929.548 ± 0.12 | 2.321 ± 0.022
298.15 K, x2 = 0.7007 | 907.599 ± 0.12 | 2.206 ± 0.021
298.15 K, x2 = 0.7991 | 881.548 ± 0.13 | 2.165 ± 0.021
298.15 K, x2 = 0.8996 | 848.369 ± 0.14 | 2.263 ± 0.021
303.15 K, x2 = 0 | 1001.73 ± 0.098 | 3.004 ± 0.028
303.15 K, x2 = 0.1013 | 992.702 ± 0.1 | 2.814 ± 0.026
303.15 K, x2 = 0.2236 | 980.276 ± 0.1 | 2.62 ± 0.025
303.15 K, x2 = 0.3036 | 971.014 ± 0.1 | 2.488 ± 0.023
303.15 K, x2 = 0.4131 | 956.499 ± 0.11 | 2.328 ± 0.022
303.15 K, x2 = 0.5065 | 942.026 ± 0.11 | 2.208 ± 0.021
303.15 K, x2 = 0.5996 | 925.164 ± 0.12 | 2.087 ± 0.02
303.15 K, x2 = 0.7007 | 903.304 ± 0.12 | 1.987 ± 0.019
303.15 K, x2 = 0.7991 | 877.365 ± 0.13 | 1.945 ± 0.019
303.15 K, x2 = 0.8996 | 844.334 ± 0.14 | 2.015 ± 0.019
308.15 K, x2 = 0 | 997.104 ± 0.098 | 2.691 ± 0.025
308.15 K, x2 = 0.1013 | 988.097 ± 0.1 | 2.525 ± 0.024
308.15 K, x2 = 0.2236 | 975.701 ± 0.1 | 2.357 ± 0.022
308.15 K, x2 = 0.3036 | 966.466 ± 0.11 | 2.241 ± 0.021
308.15 K, x2 = 0.4131 | 951.994 ± 0.11 | 2.1 ± 0.02
308.15 K, x2 = 0.5065 | 937.569 ± 0.11 | 1.991 ± 0.019
308.15 K, x2 = 0.5996 | 920.77 ± 0.12 | 1.885 ± 0.018
308.15 K, x2 = 0.7007 | 898.993 ± 0.12 | 1.796 ± 0.017
308.15 K, x2 = 0.7991 | 873.162 ± 0.13 | 1.757 ± 0.017
308.15 K, x2 = 0.8996 | 840.275 ± 0.14 | 1.807 ± 0.017
313.15 K, x2 = 0 | 992.481 ± 0.099 | 2.426 ± 0.023
313.15 K, x2 = 0.1013 | 983.495 ± 0.1 | 2.278 ± 0.022
313.15 K, x2 = 0.2236 | 971.126 ± 0.1 | 2.134 ± 0.02
313.15 K, x2 = 0.3036 | 961.914 ± 0.11 | 2.034 ± 0.019
313.15 K, x2 = 0.4131 | 947.487 ± 0.11 | 1.905 ± 0.018
313.15 K, x2 = 0.5065 | 933.108 ± 0.12 | 1.812 ± 0.017
313.15 K, x2 = 0.5996 | 916.363 ± 0.12 | 1.712 ± 0.017
313.15 K, x2 = 0.7007 | 894.665 ± 0.13 | 1.631 ± 0.016
313.15 K, x2 = 0.7991 | 868.935 ± 0.13 | 1.592 ± 0.016
313.15 K, x2 = 0.8996 | 836.188 ± 0.14 | 1.628 ± 0.016
318.15 K, x2 = 0 | 987.859 ± 0.1 | 2.199 ± 0.021
318.15 K, x2 = 0.1013 | 978.879 ± 0.1 | 2.074 ± 0.02
318.15 K, x2 = 0.2236 | 966.542 ± 0.11 | 1.942 ± 0.019
318.15 K, x2 = 0.3036 | 957.357 ± 0.11 | 1.853 ± 0.018
318.15 K, x2 = 0.4131 | 942.969 ± 0.11 | 1.738 ± 0.017
318.15 K, x2 = 0.5065 | 928.631 ± 0.12 | 1.653 ± 0.016
318.15 K, x2 = 0.5996 | 911.939 ± 0.12 | 1.562 ± 0.015
318.15 K, x2 = 0.7007 | 890.317 ± 0.13 | 1.488 ± 0.015
318.15 K, x2 = 0.7991 | 864.686 ± 0.14 | 1.45 ± 0.014
318.15 K, x2 = 0.8996 | 832.069 ± 0.15 | 1.47 ± 0.015
323.15 K, x2 = 0 | 983.234 ± 0.1 | 2.006 ± 0.019
323.15 K, x2 = 0.1013 | 974.275 ± 0.1 | 1.892 ± 0.018
323.15 K, x2 = 0.2236 | 961.962 ± 0.11 | 1.777 ± 0.017
323.15 K, x2 = 0.3036 | 952.794 ± 0.11 | 1.698 ± 0.017
323.15 K, x2 = 0.4131 | 938.437 ± 0.11 | 1.592 ± 0.016
323.15 K, x2 = 0.5065 | 924.136 ± 0.12 | 1.515 ± 0.015
323.15 K, x2 = 0.5996 | 907.495 ± 0.12 | 1.432 ± 0.014
323.15 K, x2 = 0.7007 | 885.946 ± 0.13 | 1.362 ± 0.014
323.15 K, x2 = 0.7991 | 860.406 ± 0.14 | 1.325 ± 0.013
323.15 K, x2 = 0.8996 | 827.911 ± 0.15 | 1.334 ± 0.013
328.15 K, x2 = 0 | 978.613 ± 0.1 | 1.838 ± 0.018
328.15 K, x2 = 0.1013 | 969.653 ± 0.1 | 1.736 ± 0.017
328.15 K, x2 = 0.2236 | 957.366 ± 0.11 | 1.633 ± 0.016
328.15 K, x2 = 0.3036 | 948.222 ± 0.11 | 1.558 ± 0.015
328.15 K, x2 = 0.4131 | 933.901 ± 0.12 | 1.465 ± 0.015
328.15 K, x2 = 0.5065 | 919.635 ± 0.12 | 1.394 ± 0.014
328.15 K, x2 = 0.5996 | 903.036 ± 0.12 | 1.318 ± 0.013
328.15 K, x2 = 0.7007 | 881.55 ± 0.13 | 1.254 ± 0.013
328.15 K, x2 = 0.7991 | 856.094 ± 0.14 | 1.213 ± 0.012
328.15 K, x2 = 0.8996 | 823.712 ± 0.15 | 1.209 ± 0.012
333.15 K, x2 = 0 | 973.989 ± 0.1 | 1.691 ± 0.016
333.15 K, x2 = 0.1013 | 965.036 ± 0.11 | 1.612 ± 0.016
333.15 K, x2 = 0.2236 | 952.77 ± 0.11 | 1.516 ± 0.015
333.15 K, x2 = 0.3036 | 943.642 ± 0.12 | 1.448 ± 0.014
333.15 K, x2 = 0.4131 | 929.347 ± 0.12 | 1.359 ± 0.014
333.15 K, x2 = 0.5065 | 915.11 ± 0.12 | 1.289 ± 0.013
333.15 K, x2 = 0.5996 | 898.551 ± 0.13 | 1.223 ± 0.012
333.15 K, x2 = 0.7007 | 877.126 ± 0.14 | 1.161 ± 0.012
333.15 K, x2 = 0.7991 | 851.747 ± 0.15 | 1.119 ± 0.011
333.15 K, x2 = 0.8996 | 819.469 ± 0.17 | 1.104 ± 0.011
